Patent publication US9073940B2, “Tricyclic pyrazol amine derivatives” (MERCK SERONO SA, priority 2009, dated 2015)

Tested on: 4 PI3K isoforms (Human recombinant GST-PI3K)
Assay: PI3K scintillation proximity assay, best IC50 obtained with the four isoforms (alpha, beta, delta, gamma)
Assay type: biochemical
Conditions: best IC50 obtained with the four isoforms of PI3K; read-out: Best potency measured on the 4 PI3K isoforms

Compound	IC50 [µM]
O=C(c1nn(-c2ccc(CN3CC(F)(F)C3)cc2)c2c1CS(=O)(=O)c1ccccc1-2)N1CCOCC1 [Example 271, 1-{4-[(3,3-Difluoroazetidin-1-yl)methyl]phenyl}-3-(morpholin-4-ylcarbonyl)-1,4-dihydrothiochromeno[4,3-c]pyrazole 5,5-dioxide]	0.395
COc1cccc2c1S(=O)(=O)Cc1c(C(=O)N3CCOCC3)nn([C@H]3CCCN(CCN4CC(F)C4)C3)c1-2 (single isomer, unassigned) [Example 443, 1-{1-[2-(3-fluoroazetidin-1-yl)ethyl]piperidin-3-yl}-6-methoxy-3-(morpholin-4-ylcarbonyl)-1,4-dihydrothiochromeno[4,3-c]pyrazole 5,5-dioxide]	0.062
CC(C)(C)CCN1CCCC(n2nc(C(=O)N3CCOCC3)c3c2-c2ccccc2S(=O)(=O)C3)C1 (stereo not drawn) [Example 220, 1-[1-(3,3-Dimethylbutyl)piperidin-3-yl]-3-(morpholin-4-ylcarbonyl)-1,4-dihydrothiochromeno[4,3-c]pyrazole 5,5-dioxide]	0.587
COC1CCN(Cc2ccc(-n3nc(C(=O)N4CCOCC4)c4c3-c3ccccc3S(=O)(=O)C4)cc2)C1 (stereo not drawn) [Example 267, 1-{4-[(3-Methoxypyrrolidin-1-yl)methyl]phenyl}-3-(morpholin-4-ylcarbonyl)-1,4-dihydrothiochromeno[4,3-c]pyrazole 5,5-dioxide]	0.059
O=C(c1nn(C2CCCN(CC3CCOC3)C2)c2c1CS(=O)(=O)c1ccccc1-2)N1CCOCC1 (stereo not drawn) [Example 265, 3-(Morpholin-4-ylcarbonyl)-1-[1-(tetrahydrofuran-3-ylmethyl)piperidin-3-yl]-1,4-dihydrothiochromeno[4,3-c]pyrazole 5,5-dioxide]	0.098
O=C(c1nn([C@H]2CCCN(C3CCCNC3)C2)c2c1CS(=O)(=O)c1ccccc1-2)N1CCOCC1 (stereo partly drawn) [Example 469]	0.025
O=C(c1nn(-c2ccc(CNC3CCOCC3)cc2)c2c1CS(=O)(=O)c1ccccc1-2)N1CCOCC1 [Example 436, N-{4-[3-(Morpholin-4-ylcarbonyl)-5,5-dioxidothiochromeno[4,3-c]pyrazol-1 (4H)-yl]benzyl}tetrahydro-2H-pyran-4-amine]	0.107
O=C(c1nn(C2CCCN(CCN3CCOCC3)C2)c2c1CS(=O)(=O)c1ccccc1-2)N1CCOCC1 (stereo not drawn) [Example 175, 3-(Morpholin-4-ylcarbonyl)-1-[1-(2-morpholin-4-ylethyl)piperidin-3-yl]-1,4-dihydrothiochromeno[4,3-c]pyrazole 5,5-dioxide]	0.122
O=C(c1nn(C2CCCCC2)c2c1CS(=O)(=O)c1sccc1-2)N1CCOCC1 [Example 201, 1-Cyclohexyl-3-(morpholin-4-ylcarbonyl)-1,4-dihydrothieno[3′,2′:5,6]thiopyrano[4,3-c]pyrazole 5,5-dioxide]	0.302
COCc1ccc(-n2nc(C(=O)N3CCOCC3)c3c2-c2ccccc2S(=O)(=O)C3)cc1 [Example 278, 1-[4-(Methoxymethyl)phenyl]-3-(morpholin-4-ylcarbonyl)-1,4-dihydrothiochromeno[4,3-c]pyrazole 5,5-dioxide]	0.667
CC(C)(C)OC(=O)N1CCC(n2nc(C(=O)N3CCOCC3)c3c2-c2ccccc2S(=O)(=O)C3)CC1 [Example 119, tert-Butyl 4-[3-(morpholin-4-ylcarbonyl)-5,5-dioxidothiochromeno[4,3-c]pyrazol-1(4H)-yl]piperidine-1-carboxylate]	0.808
Cc1noc(-c2cccc(-n3nc(C(=O)N4CCOCC4)c4c3-c3ccccc3S(=O)(=O)C4)c2)n1 [Example 196, 1-[3-(3-Methyl-1,2,4-oxadiazol-5-yl)phenyl]-3-(morpholin-4-ylcarbonyl)-1,4-dihydrothiochromeno[4,3-c]pyrazole 5,5-dioxide]	2.69
Cc1ccccc1-c1ccc(-n2nc(C(=O)N3CCOCC3)c3c2-c2ccccc2S(=O)(=O)C3)cc1 [Example 161, 1-(2′-Methylbiphenyl-4-yl)-3-(morpholin-4-ylcarbonyl)-1,4-dihydrothiochromeno[4,3-c]pyrazole 5,5-dioxide]	6.47
O=C(c1cccc(-n2nc(C(=O)N3CCOCC3)c3c2-c2ccccc2S(=O)(=O)C3)c1)N1CCS(=O)(=O)CC1 [Example 146, 1-{3-[(1,1-Dioxidothiomorpholin-4-yl)carbonyl]phenyl}-3-(morpholin-4-ylcarbonyl)-1,4-dihydrothiochromeno[4,3-c]pyrazole 5,5-dioxide]	0.319
COCCNCc1ccc(-n2nc(C(=O)N3CCOCC3)c3c2-c2ccccc2S(=O)(=O)C3)cc1 [Example 431, 2-Methoxy-N-{4-[3-(morpholin-4-ylcarbonyl)-5,5-dioxidothiochromeno[4,3-c]pyrazol-1(4H)-yl]benzyl}ethanamine]	0.164
O=C(c1nn([C@H]2CCCN(CCC3CCOCC3)C2)c2c1CS(=O)(=O)c1c(F)cccc1-2)N1CCOCC1 (single isomer, unassigned) [Example 344, 6-fluoro-3-(morpholin-4-ylcarbonyl)-1-{1-[2-(tetrahydro-2H-pyran-4-yl)ethyl]piperidin-3-yl}-1,4-dihydrothiochromeno[4,3-c]pyrazole 5,5-dioxide]	0.006

Compound	IC50 [µM]
O=C(c1nn(C2CCN(CC3CCOC3)C2)c2c1CS(=O)(=O)c1c(F)cccc1-2)N1CCOCC1 (stereo not drawn) [Example 304, 6-Fluoro-3-(morpholin-4-ylcarbonyl)-1-[1-(tetrahydrofuran-3-ylmethyl)pyrrolidin-3-yl]-1,4-dihydrothiochromeno[4,3-c]pyrazole 5,5-dioxide]	0.057
O=C(c1nn(C2CCOCC2)c2c1CS(=O)(=O)c1sccc1-2)N1CCOCC1 [Example 246, 3-(Morpholin-4-ylcarbonyl)-1-(tetrahydro-2H-pyran-4-yl)-1,4-dihydrothieno[3′,2′:5,6]thiopyrano[4,3-c]pyrazole 5,5-dioxide]	0.824
COc1ccc2c(c1)-c1c(c(C(=O)N3CCOCC3)nn1-c1ccccc1)CS2(=O)=O [Example 113, 8-Methoxy-3-(morpholin-4-ylcarbonyl)-1-phenyl-1,4-dihydrothiochromeno[4,3-c]pyrazole 5,5-dioxide]	3.35
O=C(c1nn(-c2ccc(-c3ccccc3)cc2)c2c1CS(=O)(=O)c1ccccc1-2)N1CCOCC1 [Example 328]	10.3
O=C(c1nn(Cc2nc3ccccc3s2)c2c1CS(=O)(=O)c1ccccc1-2)N1CCOCC1 [Example 239, 1-(1,3-Benzothiazol-2-ylmethyl)-3-(morpholin-4-ylcarbonyl)-1,4-dihydrothiochromeno[4,3-c]pyrazole 5,5-dioxide]	1.49
O=C(c1nn(-c2ccccc2Br)c2c1CS(=O)(=O)c1ccccc1-2)N1CCOCC1 [Example 20, 1-(2-bromophenyl)-3-(morpholin-4-ylcarbonyl)-1,4-dihydrothiochromeno[4,3-c]pyrazole 5,5-dioxide]	5.5
O=C(c1nn([C@H]2CCCN(CCN3CCC(F)CC3)C2)c2c1CS(=O)(=O)c1ccccc1-2)N1CCOCC1 (single isomer, unassigned) [Example 363, 1-{1-[2-(4-fluoropiperidin-1-yl)ethyl]piperidin-3-yl}-3-(morpholin-4-ylcarbonyl)-1,4-dihydrothiochromeno[4,3-c]pyrazole 5,5-dioxide]	0.025
O=C(c1nn(-c2ccccc2)c2c1C(Cc1ccccc1)S(=O)(=O)c1ccccc1-2)N1CCOCC1 (stereo not drawn) [Example 57, 4-benzyl-3-(morpholin-4-ylcarbonyl)-1-phenyl-1,4-dihydrothiochromeno[4,3-c]pyrazole 5,5-dioxide]	2.48
O=C(c1nn(-c2ccc(CN3CCC(F)CC3)cc2)c2c1CS(=O)(=O)c1ccccc1-2)N1CCOCC1 [Example 167, 1-{4-[(4-Fluoropiperidin-1-yl)methyl]phenyl}-3-(morpholin-4-ylcarbonyl)-1,4-dihydrothiochromeno[4,3-c]pyrazole 5,5-dioxide]	0.247
COCCCN1CCC(n2nc(C(=O)N3CCOCC3)c3c2-c2ccccc2S(=O)(=O)C3)C1 (stereo not drawn) [Example 256, 1-[1-(3-Methoxypropyl)pyrrolidin-3-yl]-3-(morpholin-4-ylcarbonyl)-1,4-dihydrothiochromeno[4,3-c]pyrazole 5,5-dioxide]	0.923
O=C(c1nn([C@H]2CCCN(CCN3CC(F)(F)C3)C2)c2c1CS(=O)(=O)c1ccccc1-2)N1CCOCC1 (single isomer, unassigned) [Example 362, 1-{1-[2-(3,3-difluoroazetidin-1-yl)ethyl]piperidin-3-yl}-3-(morpholin-4-ylcarbonyl)-1,4-dihydrothiochromeno[4,3-c]pyrazole 5,5-dioxide]	0.017
CC1COCCN1CCN1CCC[C@H](n2nc(C(=O)N3CCOCC3)c3c2-c2ccccc2S(=O)(=O)C3)C1 (single isomer, unassigned) [Example 377, 1-{1-[2-(3-methylmorpholin-4-yl)ethyl]piperidin-3-yl}-3-(morpholin-4-ylcarbonyl)-1,4-dihydrothiochromeno[4,3-c]pyrazole 5,5-dioxide]	0.101
O=C(c1nn(-c2ccc(CN3CCC(F)CC3)nc2)c2c1CS(=O)(=O)c1ccccc1-2)N1CCOCC1 [Example 217, 1-{6-[(4-Fluoropiperidin-1-yl)methyl]pyridin-3-yl}-3-(morpholin-4-ylcarbonyl)-1,4-dihydrothiochromeno[4,3-c]pyrazole 5,5-dioxide]	1.2
O=C(c1nn(Cc2ccccn2)c2c1CS(=O)(=O)c1ccccc1-2)N1CCOCC1 [Example 47, 3-(morpholin-4-ylcarbonyl)-1-(pyridin-2-ylmethyl)-1,4-dihydrothiochromeno[4,3-c]pyrazole 5,5-dioxide]	3.96
O=C(c1nn(-c2cccc(Cl)c2)c2c1CS(=O)(=O)c1ccccc1-2)N1CCOCC1 [Example 26, 1-(3-chlorophenyl)-3-(morpholin-4-ylcarbonyl)-1,4-dihydrothiochromeno[4,3-c]pyrazole 5,5-dioxide]	0.44
CS(=O)(=O)N1CCC(n2nc(C(=O)N3CCOCC3)c3c2-c2ccccc2S(=O)(=O)C3)CC1 [Example 123, 1-[1-(Methylsulfonyl)piperidin-4-yl]-3-(morpholin-4-ylcarbonyl)-1,4-dihydrothiochromeno[4,3-c]pyrazole 5,5-dioxide]	2.1

Same assay, conditions: inhibition at 20 μM

Compound	Best potency measured on the 4 PI3K isoforms, % inh @20 μM [% inh @20 μM]
O=C(c1nn(-c2ccccc2)c2c1CS(=O)(=O)c1cc(CN3CCOCC3)ccc1-2)N1CCOCC1 [Example 329]	23
